Reference: patent publication US6423334B1, “Composition and method for enhancing transport across gastrointestinal tract cell layers” (priority 1997, dated 2002)

How the values were obtained:
[1] = test system: Caco-2 monolayers; assay: TEER of Caco-2 monolayers during flux experiments; type: cell-based, human; settings: for overall decrease in resistance (TEER) of control cells / decrease in TEER: 2 hour flux; for overall decrease in resistance (TEER) of control cells: labelled drug alone, no enhancer
Procedure: Part a: Caco-2 monolayers (passage 20-40; 20-30 days post seeding on filters) were treated apically for 20-30 min with the 8mM and 40 mM Babassu oil in Hanks+25 mM Hepes. The oil was removed and replaced with Hanks containing 100 IU/ml Kraeber low molecular weight heparin. […] Transepithelial electrical resistance (TEER) measurements were taken at regular intervals for 20 min and subsequently every 30 min after the oil was removed with the Evohmeter (WPI) and chopsticks as shown in Table 4. The results are expressed as mean±S.E. (statistical differences examined using the two sided independent t-test).
(§1) A further 2 hour transepithelial transport study was carried out as above for [^3H]-TRH (0.12 nM) except that excess TRH (cold, 4.4 mM; Bachem, UK) was also administered apically. […] No significant difference between TRH Papp values at low concentrations (0.05-0.1 nM) and high TRH concentrations (4.4 mM) was observed providing evidence of passive TRH absorption across the monolayer.
(§2) Statistically significant differences existed between Babassu TEER results and those of the other oils (2 mM) at each 30 minute interval except between Babassu oil and Almond oil at the T=30 sampling. No significant differences in TEER was observed between Almond oil, Palm Kernel oil and Maize oil. The average 30% reduction in TEER observed for Almond, Palm Kernel and Maize oils at 2 mM during the 2 hour flux was not evident in the presence of Babassu oil (2 mM).

[2] = Flux of [3H]-TRH across Caco-2 monolayers; type: in vitro ADME, human; settings: human, Caco-2
Procedure: (§3) The cell monolayers were incubated as given in Example 4 above.
as §1, §2

[3] = test system: Caco-2 monolayers; assay: Flux of [3H]-TRH across Caco-2 monolayers; type: in vitro ADME, human
Procedure: as §3, §1, §2

[4] = test system: Caco-2 monolayers; settings: human, Caco-2, 2 h, 0.04 nM, pH 7.4
Procedure: (§4) The cell monolayers were incubated with prewarmed Hanks balanced salt solution (HBSS modified by adding 1 g glucose/I—final concentration 11 mM glucose and 24 mM Hepes, pH 7.4) at 37° C. for 30 minutes, adding 1 ml to apical and 2 ml to the basolateral side. At T=0, apical HBSS was replaced with 1 ml HBSS containing the mannitol transport solution and the plates were placed in a 37° C. incubator on an orbital shaker. Samples were taken from the apical side at T=0 and T=120 min and from the basolateral side every 30 min. The resulting samples were measured by liquid scintillation spectrophotometry using a Wallac 1409.
(§5) An experiment similar to the above transepithelial transport of mannitol experiment was conducted except that cytochalasin D (1 μg/ml), a potent tight junction opener, was added apically and basolaterally at time zero instead of the Babassu oil.
(§6) Following the procedures of the 2 hour flux experiments of Example 4 above, [^3H]-mannitol (0.04 nM) was added apically to Caco-2 monolayers in the presence of 0.1 mM, 5.0 mM, and 10 mM Almond Oil, 0.1 mM, 2.0 mM, 2.5 mM, 5.0 mM and 10 mM Palm Kernel oil as well as 0.1 mM, 1 mM and 2 mM Maize oil.

[5] = in vitro; settings: human
Procedure: as §4, §5, §6

Row | Compound | overall decrease in resistance (TEER) of control cells [1] | reduction in TEER ([1]; [3H]-TRH 0.12 nM in the presence and absence of excess cold TRH (4.4 mM), 2 hours) | Papp A→B at 2 h, 0.12 nM [2] | Papp A→B at 2 h, 0.2 nM [2] | TRH transported across the Caco-2 monolayer ([3]; Caco-2) | decrease in TEER ([1]; Cytochalasin D with [3H]-TRH) | decrease in TEER ([1]; Cytochalasin D with [3H]-mannitol) | reduction in TEER ([1]; cytochalasin D 1 μg/ml apically and basolaterally, mannitol flux) | initial reduction in TEER ([1]; cytochalasin D 1 μg/ml, TRH flux, first hour) | additional reduction in TEER ([1]; cytochalasin D 1 μg/ml, TRH flux, remaining hour) | apparent permeability coefficient (Papp) of TRH ([3]; in the presence of cytochalasin D 1 μg/ml) | % Transport per hour [4] | Papp A→B at 2 h, 0.04 nM ([5]; Caco-2, pH 7.4, Papp) | Papp A→B at 2 h, 0.04 nM ([5]; Caco-2, pH 7.4, apparent permeability coefficient (Papp) of mannitol)
1 | NC(=O)[C@@H]1CCCN1C(=O)[C@H](Cc1cnc[nH]1)NC(=O)[C@@H]1CCC(=O)N1 [TRH, Thyrotropin releasing hormone] | 29.2% | approximately 20% | 0.53 ×10⁻⁶ cm/s | 0.72 ± 0.025 ×10⁻⁶ cm/s | 0.2% | – | – | – | – | – | – | – | – | –
2 | C=C1[C@@H](C)[C@H]2[C@H](Cc3ccccc3)NC(=O)[C@]23[C@H](OC(C)=O)/C=C/[C@@](C)(O)C(=O)[C@@H](C)C/C=C/[C@H]3[C@@H]1O [cytochalasin D] | – | – | – | – | – | 50% | 59% | 60% | 40% | 22% | 5.7 ×10⁻⁶ cm/s | – | – | –
3 | OC[C@@H](O)[C@@H](O)[C@H](O)[C@H](O)CO [mannitol, mannitol, D -[1-^3H (n)]] | 12.8% | – | – | – | – | – | – | – | – | – | – | 0.28% | 0.79 ± 0.03 ×10⁻⁶ cm/s | 0.79 ×10⁻⁶ cm/s
